Results as given in the supplement of paper PMC4862054.

Experiments:
Details in all cases: incubation time: 72 h
[1] = tested on: BT-474; assay: normalised response (% of control), CellTiter-Glo; higher = more viable cells (100 = DMSO, 0 = benzethonium chloride kill control)
Procedure: (§1)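 DSRT, 72 h incubation, CellTox Green / CellTiter-Glo readout. Signal is normalised to DMSO and benzethonium chloride controls. Value is the normalised response at dose 3.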

[2] = tested on: CAL-51; assay: as above
Procedure: as §1

[3] = tested on: DU-4475; assay: as above
Procedure: as §1

[4] = tested on: MDA-MB-231; assay: as above
Procedure: as §1

[5] = tested on: HCC1599; assay: as above
Procedure: as §1

[6] = tested on: Hs578T; assay: as above
Procedure: as §1

[7] = tested on: HDQ-P1; assay: as above
Procedure: as §1

[8] = tested on: MFM-223; assay: as above
Procedure: as §1

[9] = tested on: BT-549; assay: as above
Procedure: as §1

[10] = tested on: MDA-MB-468; assay: as above
Procedure: as §1

[11] = tested on: CAL-120; assay: as above
Procedure: as §1

[12] = tested on: CAL-85-1; assay: as above
Procedure: as §1

[13] = tested on: SK-BR-3; assay: as above
Procedure: as §1

[14] = tested on: HCC1143; assay: as above
Procedure: as §1

[15] = tested on: MCF-10A; assay: as above
Procedure: as §1

[16] = tested on: MDA-MB-453; assay: as above
Procedure: as §1

[17] = tested on: MDA-MB-436; assay: as above
Procedure: as §1

[18] = tested on: CAL-148; assay: as above
Procedure: as §1

[19] = tested on: HCC1937; assay: as above
Procedure: as §1

[20] = tested on: BT-474; assay: normalised response (% of control), CellTox Green; higher = less cell death (100 = DMSO, 0 = benzethonium chloride kill control)
Method in brief: (§2)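 Breast cancer cell lines (20 µl suspension) were seeded into 384-well plates holding compound at 5 concentrations in 10-fold steps over a compound-specific 10,000-fold range, then incubated 72 h. CellTox Green fluorescence (485/520 nm) was read first, then CellTiter-Glo luminescence after 10 min at room temperature. Each plate was normalised to 0.1 % DMSO (100) and a positive kill control (0). Each value is the normalised signal at a single concentration of the series.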

[21] = tested on: CAL-51; assay: as above
Method in brief: as §2

[22] = tested on: DU-4475; assay: as above
Method in brief: as §2

[23] = tested on: MDA-MB-231; assay: as above
Method in brief: as §2

[24] = tested on: HCC1599; assay: as above
Method in brief: as §2

[25] = tested on: Hs578T; assay: as above
Method in brief: as §2

[26] = tested on: HDQ-P1; assay: as above
Method in brief: as §2

[27] = tested on: MFM-223; assay: as above
Method in brief: as §2

[28] = tested on: BT-549; assay: as above
Method in brief: as §2

[29] = tested on: MDA-MB-468; assay: as above
Method in brief: as §2

[30] = tested on: CAL-120; assay: as above
Method in brief: as §2

[31] = tested on: CAL-85-1; assay: as above
Method in brief: as §2

[32] = tested on: HCC1143; assay: as above
Method in brief: as §2

[33] = tested on: MCF-10A; assay: as above
Method in brief: as §2

[34] = tested on: MDA-MB-453; assay: as above
Method in brief: as §2

[35] = tested on: MDA-MB-436; assay: as above
Method in brief: as §2

[36] = tested on: CAL-148; assay: as above
Method in brief: as §2

[37] = tested on: HCC1937; assay: as above
Method in brief: as §2

Row | SMILES | normalised response [1] [%] | normalised response [2] [%] | normalised response [3] [%] | normalised response [4] [%] | normalised response [5] [%] | normalised response [6] [%] | normalised response [7] [%] | normalised response [8] [%] | normalised response [9] [%] | normalised response [10] [%] | normalised response [11] [%] | normalised response [12] [%] | normalised response [13] [%] | normalised response [14] [%] | normalised response [15] [%] | normalised response [16] [%] | normalised response [17] [%] | normalised response [18] [%] | normalised response [19] [%] | normalised response [20] [%] | normalised response [21] [%] | normalised response [22] [%] | normalised response [23] [%] | normalised response [24] [%] | normalised response [25] [%] | normalised response [26] [%] | normalised response [27] [%] | normalised response [28] [%] | normalised response [29] [%] | normalised response [30] [%] | normalised response [31] [%] | normalised response [32] [%] | normalised response [33] [%] | normalised response [34] [%] | normalised response [35] [%] | normalised response [36] [%] | normalised response [37] [%]
1 | CCn1c(-c2nonc2N)nc2cnc(Oc3cccc(NC(=O)c4ccc(OCCN5CCOCC5)cc4)c3)cc21 (100 nM) | 81.8 | 80 | 95.4 | 86.5 | 95.9 | 80.5 | 99.6 | 98 | 88.6 | 91.4 | 81.9 | 95.5 | 97.9 | 103 | 75.6 | 97.1 | 103 | 99.6 | 102 | 103 | 63.3 | 100 | 79.4 | 96.8 | 66.9 | 105 | 95.4 | 90.2 | 119 | 102 | 98.3 | 101 | 97.3 | 101 | 82 | 98.4 | 108
2 | CNC(=O)c1ccc(N2C(=S)N(c3ccc(C#N)c(C(F)(F)F)c3)C(=O)C2(C)C)cc1F [Enzalutamide] (100 nM) | 99.7 | 70.4 | 99.1 | 95.9 | 113 | 102 | 97.4 | 104 | 97.1 | 102 | 106 | 108 | 101 | 101 | 108 | 105 | 101 | 106 | 91.1 | 103 | 74.8 | 107 | 113 | 103 | 95.1 | 71.9 | 101 | 103 | 126 | 106 | 117 | 111 | 86.1 | 106 | 96.9 | 100 | 94.6
3 | C=C1C[C@@H]2[C@H](CC[C@]3(C)C(=O)CC[C@@H]23)[C@@]2(C)C=CC(=O)C=C12 [Exemestane] (100 nM) | 98.6 | 111 | 106 | 107 | 104 | 104 | 102 | 106 | 101 | 101 | 106 | 103 | 106 | 104 | 110 | 106 | 103 | 109 | 94.8 | 104 | 116 | 109 | 117 | 112 | 86.8 | 94.5 | 107 | 92.8 | 50 | 102 | 101 | 99.6 | 109 | 108 | 109 | 89 | 56.9
4 | Cc1cc(Nc2cc(CN3CCOCC3)c3nc(C)c(Cc4ccc(Cl)cc4F)n3n2)n[nH]1 [Gandotinib] (100 nM) | 99.9 | 94.3 | 101 | 98.8 | 85.9 | 96.3 | 110 | 93.4 | 94.4 | 97.9 | 96.1 | 102 | 95.6 | 109 | 105 | 104 | 105 | 105 | 104 | 100 | 98.9 | 99.2 | 103 | 112 | 72 | 109 | 105 | 90 | 119 | 89 | 95 | 108 | 84.8 | 102 | 100 | 103 | 102
